Patent publication US8563551B2, “Method for preventing or treating a disease related to the glucocorticoid receptor” (Santen Pharmaceutical Co., Ltd., priority 2006, dated 2013)

Target: T1, Recombinant human GR (Homo sapiens, UniProt P04150)
T1 construct: purchased Invitrogen P2816
T1 sequence (P04150 1-777): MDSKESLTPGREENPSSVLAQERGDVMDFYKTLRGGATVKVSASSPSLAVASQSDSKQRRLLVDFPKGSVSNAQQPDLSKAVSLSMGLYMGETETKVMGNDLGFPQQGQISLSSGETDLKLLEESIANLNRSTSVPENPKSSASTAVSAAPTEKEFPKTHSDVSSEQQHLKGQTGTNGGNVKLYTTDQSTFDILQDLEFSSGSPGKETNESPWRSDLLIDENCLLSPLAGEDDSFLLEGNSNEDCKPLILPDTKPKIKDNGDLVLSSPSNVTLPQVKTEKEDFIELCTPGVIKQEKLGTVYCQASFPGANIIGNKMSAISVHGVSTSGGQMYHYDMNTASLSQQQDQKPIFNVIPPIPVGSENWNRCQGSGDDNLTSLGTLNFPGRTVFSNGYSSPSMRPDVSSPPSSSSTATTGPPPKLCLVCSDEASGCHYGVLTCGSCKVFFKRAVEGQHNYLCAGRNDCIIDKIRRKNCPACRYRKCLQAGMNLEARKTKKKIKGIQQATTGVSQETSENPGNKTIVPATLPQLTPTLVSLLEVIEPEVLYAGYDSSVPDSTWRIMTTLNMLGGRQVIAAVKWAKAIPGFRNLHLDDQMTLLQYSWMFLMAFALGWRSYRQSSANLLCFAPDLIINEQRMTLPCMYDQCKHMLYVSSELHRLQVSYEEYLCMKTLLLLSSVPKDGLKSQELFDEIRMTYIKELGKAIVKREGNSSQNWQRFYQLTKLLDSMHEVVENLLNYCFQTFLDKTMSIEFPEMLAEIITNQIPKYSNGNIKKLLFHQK
Experiment: GR competitor assay (receptor competitor assay by fluorescence polarization, Invitrogen kit P2816)
Settings: 20 μM test compound solution (10 μL per well plus 5 μL 4×GS1 and 5 μL 4×GR); relative to 2 mM dexamethasone positive control; ratios of 100% or more are indicated by 100%; read-out: GR Binding ratio (%)
Experimental: In order to evaluate a binding activity to GR, a receptor competitor assay was carried out by a fluorescence polarization method. In the assay, a GR competitor assay kit (manufactured by Invitrogen, cat No. P2816) was used, and a procedure was carried out according to the protocol attached to the kit. Hereinafter, the specific method will be described.
GR screening buffer: A buffer containing 10 mM potassium phosphate (pH 7.4), 20 mM sodium molybdate (Na2MoO4), 0.1 mM ethylene diamine tetraacetic acid (EDTA), 5 mM dithiothreitol (DTT), 0.1 mM stabilizing peptide and 2% dimethylsulfoxide was prepared.
4×GS1 solution: Fluormone™ GS1, which is a fluorescent glucocorticoid ligand, was diluted with GR screening buffer, whereby a 4 nM solution was prepared.
4×GR solution: Recombinant human GR was diluted with GR screening buffer, whereby a 16 nM solution was prepared.
After a test compound was dissolved in dimethylsulfoxide, the resulting solution was diluted with GR screening buffer, whereby a 20 μM test compound solution was prepared.
1) The test compound solution was added in an amount of 10 μL into each well of a 384-well plate, and then, 4×GS1 solution and 4×GR solution were added in an amount of 5 μL into each well, respectively.
2) The plate was incubated in a dark place at room temperature for 2 to 4 hours.
3) By using a multimode plate reader, Analyst™ HT (manufactured by LJL Biosystems), fluorescence polarization of each well was measured. As the blank, a well containing GR screening buffer in place of the test compound and 4×GS1 solution was used.
4) The same procedure as that in the above 1) to 3) was carried out except that GR screening buffer was used in place of the test compound solution, and the obtained result was taken as the negative control.
5) The same procedure as that in the above 1) to 3) was carried out except that 2 mM dexamethasone was used in place of the test compound solution, and the obtained result was taken as the positive control.
A GR binding ratio (%) was calculated from the following equation. GR binding ratio(%)=100×[1−(fluorescence polarization of test compound solution−fluorescence polarization of positive control solution)/(fluorescence polarization of negative control solution fluorescence polarization of positive control solution)] (Test Results and Discussion)

| inhibition at 20 µM (stock) | SMILES |
| --- | --- |
| 93% | COc1ccccc1C(=O)Oc1ccc(-c2ccc3c(c2COC(=O)c2ccc(C)s2)C(C)=CC(C)(C)N3)c(OC)c1 [Compound 1-12, 6-[2-Methoxy-4-(2-methoxybenzoyloxy)phenyl]-5-(5-methylthiophen-2-ylcarbonyloxymethyl)-2,2,4-trimethyl-1,2-dihydroquinoline] |
| 96% | COc1cc(OC(=O)c2cccnc2)ccc1-c1ccc2c(c1COC(=O)c1ccc(C)s1)C(C)=CC(C)(C)N2 [Compound 1-13, 6-[2-Methoxy-4-(pyridin-3-ylcarbonyloxy)phenyl]-5-(5-methylthiophen-2-ylcarbonyloxymethyl)-2,2,4-trimethyl-1,2-dihydroquinoline] |
| 91% | COc1cc(OC(=O)c2ccccc2Cl)ccc1-c1ccc2c(c1COC(=O)c1ccc(C)s1)C(C)=CC(C)(C)N2 [Compound 1-15, 6-[4-(2-Chlorobenzoyloxy)-2-methoxyphenyl]-5-(5-methylthiophen-2-ylcarbonyloxymethyl)-2,2,4-trimethyl-1,2-dihydroquinoline] |
| 85% | COc1cc(OC(=O)c2cccc(Cl)c2)ccc1-c1ccc2c(c1COC(=O)c1ccc(C)s1)C(C)=CC(C)(C)N2 [Compound 1-16, 6-[4-(3-Chlorobenzoyloxy)-2-methoxyphenyl]-5-(5-methylthiophen-2-ylcarbonyloxymethyl)-2,2,4-trimethyl-1,2-dihydroquinoline] |
| 84% | COc1cc(OC(=O)c2ccc(Cl)cc2)ccc1-c1ccc2c(c1COC(=O)c1ccc(C)s1)C(C)=CC(C)(C)N2 [Compound 1-17, 6-[4-(4-Chlorobenzoyloxy)-2-methoxyphenyl]-5-(5-methylthiophen-2-ylcarbonyloxymethyl)-2,2,4-trimethyl-1,2-dihydroquinoline] |
| 91% | COc1cc(OC(=O)c2ccccc2)ccc1-c1ccc2c(c1COC(=O)c1ccc(C)s1)C(C)=CC(C)(C)N2 [Compound 1-18, 6-(4-Benzoyloxy-2-methoxyphenyl)-5-(5-methylthiophen-2-ylcarbonyloxymethyl)-2,2,4-trimethyl-1,2-dihydroquinoline] |
| 89% | COc1cc(OC(=O)c2ccccc2C)ccc1-c1ccc2c(c1COC(=O)c1ccc(C)s1)C(C)=CC(C)(C)N2 [Compound 1-19, 6-[2-Methoxy-4-(2-methylbenzoyloxy)phenyl]-5-(5-methylthiophen-2-ylcarbonyloxymethyl)-2,2,4-trimethyl-1,2-dihydroquinoline] |
| 90% | COc1cc(OC(=O)c2ccccc2F)ccc1-c1ccc2c(c1COC(=O)c1ccc(C)s1)C(C)=CC(C)(C)N2 [Compound 1-20, 6-[4-(2-Fluorobenzoyloxy)-2-methoxyphenyl]-5-(5-methylthiophen-2-ylcarbonyloxymethyl)-2,2,4-trimethyl-1,2-dihydroquinoline] |
| 94% | COc1cc(OC(=O)c2ccoc2)ccc1-c1ccc2c(c1COC(=O)c1ccc(C)s1)C(C)=CC(C)(C)N2 [Compound 1-25, 6-[4-(Furan-3-ylcarbonyloxy)-2-methoxyphenyl]-5-(5-methylthiophen-2-ylcarbonyloxymethyl)-2,2,4-trimethyl-1,2-dihydroquinoline] |

Second part, the compound before the results:

| SMILES | inhibition at 20 µM (stock) |
| --- | --- |
| COc1cc(OC(=O)c2ccc(C)nc2)ccc1-c1ccc2c(c1COC(=O)c1ccc(C)s1)C(C)=CC(C)(C)N2 [Compound 1-2, 6-[2-Methoxy-4-(6-methylpyridin-3-ylcarbonyloxy)phenyl]-5-(5-methylthiophen-2-ylcarbonyloxymethyl)-2,2,4-trimethyl-1,2-dihydroquinoline] | 93% |
| COc1cc(OC(=O)c2ccoc2)ccc1-c1ccc2c(c1COC(=O)c1ccc(C)cc1)C(C)=CC(C)(C)N2 [Compound 1-3, 6-[4-(Furan-3-ylcarbonyloxy)-2-methoxyphenyl]-5-(4-methylbenzoyloxymethyl)-2,2,4-trimethyl-1,2-dihydroquinoline] | 100% |
| COc1cc(OC(=O)c2ccccc2Cl)ccc1-c1ccc2c(c1COC(=O)c1ccc(C)cc1)C(C)=CC(C)(C)N2 [Compound 1-6, 6-[4-(2-Chlorobenzoyloxy)-2-methoxyphenyl]-5-(4-methylbenzoyloxymethyl)-2,2,4-trimethyl-1,2-dihydroquinoline] | 100% |
| COc1ccccc1C(=O)Oc1ccc(-c2ccc3c(c2COC(=O)c2ccc(C)cc2)C(C)=CC(C)(C)N3)c(OC)c1 [Compound 1-7, 6-[2-Methoxy-4-(2-methoxybenzoyloxy)phenyl]-5-(4-methylbenzoyloxymethyl)-2,2,4-trimethyl-1,2-dihydroquinoline] | 100% |
| COc1cc(OC(=O)c2cccnc2)ccc1-c1ccc2c(c1COC(=O)c1ccc(C)cc1)C(C)=CC(C)(C)N2 [Compound 1-8, 5-(4-Methylbenzoyloxymethyl)-6-[2-methoxy-4-(pyridin-3-ylcarbonyloxy)phenyl]-2,2,4-trimethyl-1,2-dihydroquinoline] | 100% |
| COc1cc(OC(=O)c2ccco2)ccc1-c1ccc2c(c1COC(=O)c1ccc(C)cc1)C(C)=CC(C)(C)N2 [Compound 1-10, 6-[4-(Furan-2-ylcarbonyloxy)-2-methoxyphenyl]-5-(4-methylbenzoyloxymethyl)-2,2,4-trimethyl-1,2-dihydroquinoline] | 100% |
| CCCC(=O)Oc1ccc(-c2ccc3c(c2COC(=O)c2ccc(C)s2)C(C)=CC(C)(C)N3)c(OC)c1 [Compound 1-11, 6-(4-Butyryloxy-2-methoxyphenyl)-5-(5-methylthiophen-2-ylcarbonyloxymethyl)-2,2,4-trimethyl-1,2-dihydroquinoline] | 100% |
| COc1cc(OC(=O)c2ccco2)ccc1-c1ccc2c(c1COC(=O)c1ccc(C)s1)C(C)=CC(C)(C)N2 [Compound 1-14, 6-[4-(Furan-2-ylcarbonyloxy)-2-methoxyphenyl]-5-(5-methylthiophen-2-ylcarbonyloxymethyl)-2,2,4-trimethyl-1,2-dihydroquinoline] | 96% |
| COc1ccc(C(=O)Oc2ccc(-c3ccc4c(c3COC(=O)c3ccc(C)s3)C(C)=CC(C)(C)N4)c(OC)c2)cc1 [Compound 1-22, 6-[2-Methoxy-4-(4-methoxybenzoyloxy)phenyl]-5-(5-methylthiophen-2-ylcarbonyloxymethyl)-2,2,4-trimethyl-1,2-dihydroquinoline] | 91% |
| COc1cc(OC(=O)c2cncnc2)ccc1-c1ccc2c(c1COC(=O)c1ccc(C)s1)C(C)=CC(C)(C)N2 [Compound 1-23, 6-[2-Methoxy-4-(pyrimidin-5-ylcarbonyloxy)phenyl]-5-(5-methylthiophen-2-ylcarbonyloxymethyl)-2,2,4-trimethyl-1,2-dihydroquinoline] | 94% |
| COc1cc(OC(=O)c2ccsc2)ccc1-c1ccc2c(c1COC(=O)c1ccc(C)s1)C(C)=CC(C)(C)N2 [Compound 1-24, 6-[2-Methoxy-4-(thiophen-3-ylcarbonyloxy)phenyl]-5-(5-methylthiophen-2-ylcarbonyloxymethyl)-2,2,4-trimethyl-1,2-dihydroquinoline] | 94% |
| COC(=O)c1cccc(C(=O)Oc2ccc(-c3ccc4c(c3COC(=O)c3ccc(C)s3)C(C)=CC(C)(C)N4)c(OC)c2)c1 [Compound 1-26, 6-[2-Methoxy-4-(3-methoxycarbonylbenzoyloxy)phenyl]-5-(5-methylthiophen-2-ylcarbonyloxymethyl)-2,2,4-trimethyl-1,2-dihydroquinoline] | 94% |
